Assay in all cases: normalised viability (% of control), CellTiter-Blue; higher = more viable cells (about 100 = DMSO control)
Holding throughout (conditions): incubation time: 72 h
For orientation: Resazurin is reduced to fluorescent resorufin, in cell work by metabolically active cells.

Experiment [1] has as its system DU-4475. The method, then: (§1)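 DSRT, CellTiter-Blue viability, 72 h incubation. Signal is normalised to DMSO and benzethonium chloride controls. Value is the normalised response at dose 7.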
In experiment [2] the test system is CAL-85-1. The procedure:
as §1

Experiment [3] deals with MDA-MB-453. The method, then:
as §1

Experiment [4] deals with HDQ-P1. The method, then:
as §1

Experiment [5] has as its system CAL-148. The method, then: as §1
Experiment [6] relates to CAL-51. The procedure: as §1
Experiment [7] concerns DU-4475. The method, then:
(§2)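 DSRT, CellTiter-Blue viability, 72 h incubation. Signal is normalised to DMSO and benzethonium chloride controls. Value is the normalised response at dose 8.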
The source holds these as a separate data set.

Experiment [8] relates to CAL-85-1. The procedure: as §2
The source holds these as a separate data set.

In experiment [9] the test system is MDA-MB-453. The method, then:
as §2
This is another data set of the same source.

Experiment [10] concerns HDQ-P1. The procedure: as §2
The source holds these as a separate data set.

The subject of experiment [11] is CAL-148. The method, then:
as §2
This is another data set of the same source.

For experiment [12], the system named is CAL-51. The procedure: as §2
This is another data set of the same source.

Experimental findings from the supplement of paper PMC4862054 are described below.

Consider `C[C@]12CC[C@@H]3c4ccc(OC(=O)N(CCCl)CCCl)cc4CC[C@H]3[C@@H]1CC[C@@H]2O` [Estramustine] (99 nM), for which the normalised viability in the experiment on DU-4475 [1] is 106%; in the experiment on CAL-85-1 [2] it was 102%; in the experiment on MDA-MB-453 [3], 99.7%; in the experiment on HDQ-P1 [4], 97.1%; in the experiment with CAL-148 [5], 119%; in the experiment on CAL-51 [6], 85.8%.
Take `Nc1ncn([C@@H]2O[C@H](CO)[C@@H](O)[C@H]2O)c(=O)n1` [Azacitidine] (3000 nM): the normalised viability was 99.7% in the experiment on DU-4475 [7]; 93.8% in the experiment with CAL-85-1 [8]; 101% with MDA-MB-453 [9]; 105% in the experiment with HDQ-P1 [10]; 89.5% with CAL-148 [11]; 109% in the experiment with CAL-51 [12].
Consider `Cc1sc2c(c1C)C(c1ccc(Cl)cc1)=N[C@@H](CC(=O)OC(C)(C)C)c1nnc(C)n1-2` [(+)JQ1] (3000 nM), for which the normalised viability with DU-4475 [7] turned out to be 0.9%; with CAL-85-1 [8], 40.5%; in the experiment on MDA-MB-453 [9], 23.3%; in the experiment with HDQ-P1 [10], 94.8%; in the experiment on CAL-148 [11], 36.9%; in the experiment with CAL-51 [12] it was 74.3%.
With `CC(C)(C)c1cnc(CSc2cnc(NC(=O)C3CCNCC3)s2)o1` [SNS-032] (3000 nM), the normalised viability in the experiment on DU-4475 [7] was 4.8%; with CAL-85-1 [8], 3.68%; with MDA-MB-453 [9], 15.8%; in the experiment on HDQ-P1 [10], 14.4%; with CAL-148 [11], 18.8%; in the experiment on CAL-51 [12], 8.52%.
With `COc1cc(F)c(F)c(Nc2ccc(I)cc2F)c1NS(=O)(=O)C1(C[C@H](O)CO)CC1` [RDEA119] (3000 nM), the normalised viability with DU-4475 [7] is 1.46%; with CAL-85-1 [8], 33.4%; in the experiment with MDA-MB-453 [9], 54.9%; with HDQ-P1 [10], 36.1%; in the experiment on CAL-148 [11], 75.7%; in the experiment with CAL-51 [12], 69.9%.
In the case of `C[C@]12CC[C@@H]3c4ccc(OC(=O)N(CCCl)CCCl)cc4CC[C@H]3[C@@H]1CC[C@@H]2O` [Estramustine] (297 nM), the normalised viability in the experiment on DU-4475 [7] came out at 118%; in the experiment with CAL-85-1 [8], 86.5%; in the experiment with MDA-MB-453 [9] it was 101%; with HDQ-P1 [10], 93.6%; in the experiment with CAL-148 [11] it was 97.5%; in the experiment with CAL-51 [12] it was 92.5%.
As for `COc1cc2c(cc1O)CC[C@@H]1[C@@H]2CC[C@]2(C)[C@@H](O)CC[C@@H]12` [2-methoxyestradiol] (3000 nM), the normalised viability turned out to be 36.1% in the experiment with DU-4475 [7]; 41.2% in the experiment on CAL-85-1 [8]; 34.4% in the experiment with MDA-MB-453 [9]; 56.7% in the experiment on HDQ-P1 [10]; 29.6% in the experiment on CAL-148 [11]; 42.2% with CAL-51 [12].
In the case of `CC1=C2C[C@H]3[C@@H](CC=C4C[C@@H](O)CC[C@@]43C)[C@@H]2CC[C@]12O[C@@H]1C[C@H](C)CN[C@H]1[C@H]2C` [Cyclopamine] (3000 nM), the normalised viability with DU-4475 [7] is 122%; in the experiment on CAL-85-1 [8], 99.7%; in the experiment on MDA-MB-453 [9], 105%; in the experiment with HDQ-P1 [10] it was 105%; in the experiment on CAL-148 [11], 111%; in the experiment on CAL-51 [12] it was 109%.
As to `CC1(C)CNc2cc(NC(=O)c3cccnc3NCc3ccncc3)ccc21` [Motesanib] (3000 nM), the normalised viability in the experiment on DU-4475 [7] turned out to be 101%; with CAL-85-1 [8] it was 86.3%; with MDA-MB-453 [9] it was 80.8%; with HDQ-P1 [10], 72.7%; in the experiment on CAL-148 [11], 86.7%; in the experiment on CAL-51 [12], 104%.
For `C[C@]1(O)C[C@@H](c2nc(-c3ccc4ccc(-c5ccccc5)nc4c3)c3c(N)nccn32)C1` [OSI-906] (3000 nM), the normalised viability was 106% in the experiment with DU-4475 [7]; 85.5% in the experiment with CAL-85-1 [8]; 73.9% in the experiment with MDA-MB-453 [9]; 50.5% with HDQ-P1 [10]; 95.6% in the experiment on CAL-148 [11]; 88.3% in the experiment with CAL-51 [12].
On to `O=P(O)(O)C(O)(Cn1ccnc1)P(=O)(O)O` [Zoledronic acid] (3000 nM), for which the normalised viability with DU-4475 [7] worked out at 121%; in the experiment with CAL-85-1 [8] it was 96.8%; in the experiment on MDA-MB-453 [9], 111%; in the experiment with HDQ-P1 [10] it was 89.4%; with CAL-148 [11] it was 90.1%; in the experiment on CAL-51 [12], 113%.
For the compound `O=C1CN2Cc3c(ccc(Cl)c3Cl)N=C2N1` [Anagrelide] (3000 nM), the normalised viability with DU-4475 [7] was 97.8%; in the experiment on CAL-85-1 [8] it was 84.8%; with MDA-MB-453 [9] it was 112%; in the experiment with HDQ-P1 [10] it was 85.4%; with CAL-148 [11], 94.8%; with CAL-51 [12], 78.4%.
Take `C[C@]1(O)C[C@@H](c2nc(-c3ccc4ccc(-c5ccccc5)nc4c3)c3c(N)nccn32)C1` [OSI-906] (1000 nM): the normalised viability in the experiment with DU-4475 [1] was determined as 77.3%; in the experiment on CAL-85-1 [2] it was 91.9%; in the experiment on MDA-MB-453 [3] it was 93.7%; in the experiment with HDQ-P1 [4] it was 55.5%; with CAL-148 [5], 95%; in the experiment with CAL-51 [6] it was 86.9%.
For the compound `CC(=O)c1c(C)c2cnc(Nc3ccc(N4CCNCC4)cn3)nc2n(C2CCCC2)c1=O` (3000 nM), the normalised viability is 102% with DU-4475 [7]; 102% in the experiment with CAL-85-1 [8]; 63.6% in the experiment on MDA-MB-453 [9]; 120% in the experiment on HDQ-P1 [10]; 103% in the experiment with CAL-148 [11]; 69.6% in the experiment on CAL-51 [12].
Turning to `COc1cc(F)c(F)c(Nc2ccc(I)cc2F)c1NS(=O)(=O)C1(C[C@H](O)CO)CC1` [RDEA119] (1000 nM), the normalised viability in the experiment on DU-4475 [1] is 0.64%; in the experiment on CAL-85-1 [2], 54.1%; with MDA-MB-453 [3], 67%; with HDQ-P1 [4], 40.8%; in the experiment on CAL-148 [5] it was 87.7%; in the experiment with CAL-51 [6], 79.3%.
Take `Oc1ncnc2[nH]ncc12` [Allopurinol] (3000 nM): the normalised viability is 113% with DU-4475 [7]; 103% with CAL-85-1 [8]; 108% in the experiment on MDA-MB-453 [9]; 94.6% with HDQ-P1 [10]; 108% in the experiment on CAL-148 [11]; 104% in the experiment on CAL-51 [12].
As to `Cn1cnc2c(F)c(Nc3ccc(Br)cc3Cl)c(C(=O)NOCCO)cc21` [Selumetinib] (3000 nM), the normalised viability with DU-4475 [7] is 0.16%; with CAL-85-1 [8], 59.3%; with MDA-MB-453 [9], 108%; in the experiment on HDQ-P1 [10], 76.5%; in the experiment with CAL-148 [11], 91.9%; in the experiment on CAL-51 [12], 86.9%.
Regarding `Cn1cc(C2=Nc3cc(NC(=O)C(N)C4CCCCC4)cc4c3C2=CNNC4=O)cn1` (stereo not given) (3000 nM), the normalised viability is 62.3% with DU-4475 [7]; 50.7% in the experiment with CAL-85-1 [8]; 25.2% in the experiment with MDA-MB-453 [9]; 51.6% in the experiment on HDQ-P1 [10]; 21.9% in the experiment on CAL-148 [11]; 80.6% with CAL-51 [12].
On to `O=P(O)(O)C(O)(Cn1ccnc1)P(=O)(O)O` [Zoledronic acid] (1000 nM), for which the normalised viability was 120% in the experiment with DU-4475 [1]; 88.4% with CAL-85-1 [2]; 86.8% in the experiment on MDA-MB-453 [3]; 95.7% with HDQ-P1 [4]; 92.5% in the experiment with CAL-148 [5]; 101% in the experiment on CAL-51 [6].
For `CC(=O)c1c(C)c2cnc(Nc3ccc(N4CCNCC4)cn3)nc2n(C2CCCC2)c1=O` (1000 nM), the normalised viability with DU-4475 [1] was determined as 94.6%; with CAL-85-1 [2], 98.9%; with MDA-MB-453 [3], 66.2%; in the experiment on HDQ-P1 [4], 99.5%; in the experiment on CAL-148 [5] it was 107%; with CAL-51 [6], 72.8%.
